pIC50: −log10 of the molar value.
What was measured:
Assay in all cases: E1-E2 transthioesterification assay (UbcH5a, Coomassie gel), recombinant purified E1
Format in all cases: biochemical
TbUBA1a [1] = target: T1, TbUBA1a (Trypanosoma brucei, UniProt Q57XC5)
T1 construct: gene Tb08.26A17.680; GST fusion cleaved with HRV 3C

TbUBA1b [2] = target: T2, TbUBA1b (Trypanosoma brucei, UniProt Q38DE8)
T2 construct: gene Tb09.211.3610; GST fusion cleaved with thrombin
T2 sequence (Q38DE8 1-1214): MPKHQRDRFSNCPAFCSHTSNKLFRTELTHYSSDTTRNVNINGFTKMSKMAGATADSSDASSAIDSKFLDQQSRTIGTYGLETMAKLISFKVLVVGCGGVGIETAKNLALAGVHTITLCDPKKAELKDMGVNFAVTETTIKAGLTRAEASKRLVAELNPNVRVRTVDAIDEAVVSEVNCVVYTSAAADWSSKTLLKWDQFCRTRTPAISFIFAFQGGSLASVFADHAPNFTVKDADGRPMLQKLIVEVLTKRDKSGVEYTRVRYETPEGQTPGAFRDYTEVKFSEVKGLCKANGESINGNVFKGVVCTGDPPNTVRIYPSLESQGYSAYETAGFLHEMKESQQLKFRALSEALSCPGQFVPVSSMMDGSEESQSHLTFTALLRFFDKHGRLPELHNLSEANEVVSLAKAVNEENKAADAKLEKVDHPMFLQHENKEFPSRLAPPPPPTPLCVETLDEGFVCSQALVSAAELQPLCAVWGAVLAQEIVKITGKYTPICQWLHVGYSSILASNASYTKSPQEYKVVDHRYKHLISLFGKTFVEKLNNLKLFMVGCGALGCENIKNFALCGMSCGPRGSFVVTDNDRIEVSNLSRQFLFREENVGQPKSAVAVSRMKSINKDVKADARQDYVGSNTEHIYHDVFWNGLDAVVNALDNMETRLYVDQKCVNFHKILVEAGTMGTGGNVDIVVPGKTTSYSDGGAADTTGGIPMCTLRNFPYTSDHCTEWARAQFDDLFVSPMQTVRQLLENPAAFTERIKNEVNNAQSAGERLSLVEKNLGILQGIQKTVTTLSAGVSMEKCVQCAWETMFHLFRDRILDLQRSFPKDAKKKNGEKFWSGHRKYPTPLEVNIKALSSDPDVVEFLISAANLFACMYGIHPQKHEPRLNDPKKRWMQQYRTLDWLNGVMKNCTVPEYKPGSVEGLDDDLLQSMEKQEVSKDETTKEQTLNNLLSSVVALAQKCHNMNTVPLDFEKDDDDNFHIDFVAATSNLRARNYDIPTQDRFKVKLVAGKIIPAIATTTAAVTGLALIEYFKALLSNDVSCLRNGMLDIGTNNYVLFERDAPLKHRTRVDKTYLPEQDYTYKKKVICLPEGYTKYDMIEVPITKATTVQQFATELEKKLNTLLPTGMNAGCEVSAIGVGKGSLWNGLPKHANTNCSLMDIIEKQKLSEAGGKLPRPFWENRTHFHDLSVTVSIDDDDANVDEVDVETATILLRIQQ

[3] = target: T3, human UBA1 (hUBA1), ubiquitin E1 activating enzyme (Homo sapiens, UniProt P22314)
T3 construct: N-terminal His-tagged hUBA1
T3 sequence (P22314 2-1058): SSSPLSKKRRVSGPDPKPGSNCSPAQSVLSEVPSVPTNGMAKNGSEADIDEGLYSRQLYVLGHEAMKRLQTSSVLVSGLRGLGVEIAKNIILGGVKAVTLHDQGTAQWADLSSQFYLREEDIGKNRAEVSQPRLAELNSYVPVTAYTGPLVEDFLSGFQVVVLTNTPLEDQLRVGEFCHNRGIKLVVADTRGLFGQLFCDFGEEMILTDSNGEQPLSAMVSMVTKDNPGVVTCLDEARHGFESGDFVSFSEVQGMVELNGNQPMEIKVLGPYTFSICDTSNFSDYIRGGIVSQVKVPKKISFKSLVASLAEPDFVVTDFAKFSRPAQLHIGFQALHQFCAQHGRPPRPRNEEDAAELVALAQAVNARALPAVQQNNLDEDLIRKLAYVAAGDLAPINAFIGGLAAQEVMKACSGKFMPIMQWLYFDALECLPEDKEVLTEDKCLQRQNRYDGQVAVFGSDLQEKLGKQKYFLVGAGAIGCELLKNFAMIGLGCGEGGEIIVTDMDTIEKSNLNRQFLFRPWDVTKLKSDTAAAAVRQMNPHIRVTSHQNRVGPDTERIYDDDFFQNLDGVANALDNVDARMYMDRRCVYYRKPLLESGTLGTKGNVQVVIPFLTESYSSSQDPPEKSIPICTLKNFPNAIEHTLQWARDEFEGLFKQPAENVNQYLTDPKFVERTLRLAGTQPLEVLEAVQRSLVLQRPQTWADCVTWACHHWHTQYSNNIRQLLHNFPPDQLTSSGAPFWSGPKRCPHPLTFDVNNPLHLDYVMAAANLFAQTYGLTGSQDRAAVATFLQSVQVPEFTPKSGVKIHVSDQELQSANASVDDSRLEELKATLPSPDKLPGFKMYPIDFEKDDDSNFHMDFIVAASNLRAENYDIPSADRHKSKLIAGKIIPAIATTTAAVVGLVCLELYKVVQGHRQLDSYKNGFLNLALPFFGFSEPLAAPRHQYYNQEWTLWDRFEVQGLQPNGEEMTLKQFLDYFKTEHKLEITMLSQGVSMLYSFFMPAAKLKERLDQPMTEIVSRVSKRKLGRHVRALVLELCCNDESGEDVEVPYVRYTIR

TbUBA1a [4] = target: T4, TbUBA1a (Trypanosoma brucei, UniProt Q57XC5, E559D/Q534P/S560A)
T4 construct: gene Tb08.26A17.680; GST fusion cleaved with HRV 3C; with ubiquitin
T4 sequence (Q57XC5 whole entry E559D/Q534P/S560A, the tested form may be a part): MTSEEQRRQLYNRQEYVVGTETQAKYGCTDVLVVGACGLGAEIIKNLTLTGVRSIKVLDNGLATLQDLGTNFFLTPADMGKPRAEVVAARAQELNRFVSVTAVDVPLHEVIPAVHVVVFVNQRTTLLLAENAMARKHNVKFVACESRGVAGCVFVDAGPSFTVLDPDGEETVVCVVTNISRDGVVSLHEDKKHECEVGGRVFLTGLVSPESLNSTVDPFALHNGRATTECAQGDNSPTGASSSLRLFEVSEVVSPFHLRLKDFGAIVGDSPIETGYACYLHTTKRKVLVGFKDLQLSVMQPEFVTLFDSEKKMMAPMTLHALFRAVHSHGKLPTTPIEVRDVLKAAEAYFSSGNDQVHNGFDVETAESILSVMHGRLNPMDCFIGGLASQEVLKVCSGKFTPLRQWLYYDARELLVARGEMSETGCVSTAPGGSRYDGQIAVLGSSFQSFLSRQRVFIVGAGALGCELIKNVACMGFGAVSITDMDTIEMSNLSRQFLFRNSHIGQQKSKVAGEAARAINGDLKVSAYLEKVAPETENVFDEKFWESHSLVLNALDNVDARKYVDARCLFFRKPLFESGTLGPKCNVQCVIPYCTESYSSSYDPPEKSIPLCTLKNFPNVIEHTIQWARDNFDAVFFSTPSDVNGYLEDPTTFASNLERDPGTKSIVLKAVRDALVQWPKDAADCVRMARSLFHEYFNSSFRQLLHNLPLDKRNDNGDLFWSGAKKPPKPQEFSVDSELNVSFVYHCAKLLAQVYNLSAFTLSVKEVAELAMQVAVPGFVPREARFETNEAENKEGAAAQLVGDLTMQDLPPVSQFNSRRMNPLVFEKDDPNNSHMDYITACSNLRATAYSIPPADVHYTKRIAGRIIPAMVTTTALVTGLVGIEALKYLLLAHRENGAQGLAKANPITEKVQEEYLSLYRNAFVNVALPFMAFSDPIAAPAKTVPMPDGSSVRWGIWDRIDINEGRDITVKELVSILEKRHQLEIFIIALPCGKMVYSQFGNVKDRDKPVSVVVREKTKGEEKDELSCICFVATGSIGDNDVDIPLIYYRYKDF

TbUBA1b [5] = target: T5, TbUBA1b (Trypanosoma brucei, UniProt Q38DE8, E656D/T657A)
T5 construct: gene Tb09.211.3610; GST fusion cleaved with thrombin; with ubiquitin

TbUBA1b [6] = target: T6, TbUBA1b (Trypanosoma brucei, UniProt Q38DE8)
T6 construct: gene Tb09.211.3610; GST fusion cleaved with thrombin; with ubiquitin

T1 sequence (Q57XC5 1-1055): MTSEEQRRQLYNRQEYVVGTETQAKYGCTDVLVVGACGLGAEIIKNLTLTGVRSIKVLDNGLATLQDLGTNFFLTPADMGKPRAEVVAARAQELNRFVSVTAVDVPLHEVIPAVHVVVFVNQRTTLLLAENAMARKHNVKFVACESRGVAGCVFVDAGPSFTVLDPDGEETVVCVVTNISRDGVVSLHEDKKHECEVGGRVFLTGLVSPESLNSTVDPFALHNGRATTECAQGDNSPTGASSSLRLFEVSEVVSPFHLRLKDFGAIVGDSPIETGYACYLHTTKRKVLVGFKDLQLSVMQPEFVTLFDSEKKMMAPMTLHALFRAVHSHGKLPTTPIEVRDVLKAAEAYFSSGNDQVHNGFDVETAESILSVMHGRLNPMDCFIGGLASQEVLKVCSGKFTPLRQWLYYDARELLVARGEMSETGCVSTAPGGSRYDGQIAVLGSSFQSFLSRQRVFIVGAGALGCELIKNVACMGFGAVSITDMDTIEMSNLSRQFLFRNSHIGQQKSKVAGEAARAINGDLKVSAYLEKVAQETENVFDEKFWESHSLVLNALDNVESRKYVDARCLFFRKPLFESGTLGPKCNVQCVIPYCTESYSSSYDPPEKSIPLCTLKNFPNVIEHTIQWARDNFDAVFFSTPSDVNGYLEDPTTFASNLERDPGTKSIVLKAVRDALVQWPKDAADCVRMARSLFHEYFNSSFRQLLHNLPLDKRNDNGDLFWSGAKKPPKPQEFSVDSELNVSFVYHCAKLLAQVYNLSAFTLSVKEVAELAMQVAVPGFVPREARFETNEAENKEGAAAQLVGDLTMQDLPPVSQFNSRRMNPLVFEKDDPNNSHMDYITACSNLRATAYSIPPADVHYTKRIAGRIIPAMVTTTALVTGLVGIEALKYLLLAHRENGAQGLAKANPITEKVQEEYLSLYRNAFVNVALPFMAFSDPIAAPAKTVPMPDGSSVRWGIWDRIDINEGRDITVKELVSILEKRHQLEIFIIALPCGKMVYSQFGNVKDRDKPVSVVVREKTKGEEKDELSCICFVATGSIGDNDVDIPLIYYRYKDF

Row | SMILES | E1-E2 transthioesterification assay (UbcH5a, Coomassie gel), recombinant purifie (TbUBA1a [1]) | E1-E2 transthioesterification assay (UbcH5a, Coomassie gel), recombinant purifie (TbUBA1b [2]) | E1-E2 transthioesterification assay (UbcH5a, Coomassie gel), recombinant purifie [3] | pIC50 (TbUBA1a [4]) | E1-E2 transthioesterification assay (UbcH5a, Coomassie gel), recombinant purifie (TbUBA1b [5]) | pIC50 (TbUBA1b [6])
1 | CCOC(=O)c1ccc(N2NC(=O)C(=Cc3ccc([N+](=O)[O-])o3)C2=O)cc1 [PYR-41] | the TbUBA1s were slightly (~two-fold) more sensitive to PYR-41 than hUBA1 | the TbUBA1s were slightly (~two-fold) more sensitive to PYR-41 than hUBA1 | we observed very little difference between inhibition of human and the T. brucei UBA1s (Fig. 3C) |  |  | 
2 | NS(=O)(=O)OC[C@H]1C[C@@H](Nc2ccnc3cc(-c4cccc(SC(F)(F)F)c4)nn23)[C@H](O)[C@@H]1O [TAK-243] |  |  |  | 4.92 | The increase in inhibition of the double mutant E656D, T657A was almost as large as that of the triple mutant | 3.80
